The test system of data set [1] is human red blood cells.
Method: (§3) Peptide samples (concentrations determined by amino acid analysis) were added to 1% human erythrocytes in phosphate-buffered saline (100 mM NaCl, 80 mM Na2HPO4, 20 mM NaH2PO4, pH 7.4) and the reaction mixtures were incubated at 37°C for 18h in microtiter plates. Two-fold serial dilutions of the peptide samples were carried out. This determination was made by withdrawing aliquots from the hemolysis assays and removing unlysed erythrocytes by centrifugation (800 × g). Hemoglobin release was determined spectrophotometrically at 570 nm. The control for 100% hemolysis was a sample of erythrocytes treated with water. The control for no release of hemoglobin was a sample of 1% erythrocytes without any peptide added. […] The hemolytic activity HC50 is the peptide concentration that causes 50% hemolysis of erythrocytes after 18h. HC50 was determined from a plot of percent lysis versus peptide concentration (μM) using 12 different concentrations up to 1000 micrograms per ml for 18h at 37°C. The average of 3 replicates is used with an average variance of less than 4%. Fresh human blood was obtained from Vitalant, Denver, CO, USA.
(§4) In order to determine that we were able to eliminate hemolysis of human red blood cells, we used the most rigorous test of hemolytic activity (18h at 37°C and up to 1000 μg/mL or >350 μM of AMP). […] The HC50 value is estimated when 50% hemolysis is not observed at 1000 μg/mL by extrapolation of the plots observed in figure 3.
Data set [2] has as its system Acinetobacter baumannii MB9955. To be noted: Mueller-Hinton medium, 37°C, 24 h, inoculum 5 × 10^5 CFU/mL; MIC based on three sets of determinations. As for the experimental part: (§1) The A. baumannii strains used in this study consisted of seven strains resistant to Polymyxin B and Colistin (antibiotics of last resort) obtained from MERCK (M89941, M89949, M89951, M89952, M89953, M89955 and M89963). The MICGM in this case is the geometric mean MIC from the seven Acinetobacter baumannii strains used in this study.
(§2) The minimal inhibitory concentration (MIC) is defined as the lowest peptide concentration that inhibited bacterial growth. MICs were measured by a standard microtiter dilution method in Mueller Hinton (MH) medium. Briefly, cells were grown overnight at 37°C in MH broth and were diluted in the same medium. […] The plates were incubated at 37°C for 24h, and the MICs were determined. The MICGM is the geometric mean of the number of MIC values.

Data set [3] concerns Acinetobacter baumannii MB9949. To be noted: Mueller-Hinton medium, 37°C, 24 h, inoculum 5 × 10^5 CFU/mL; MIC based on three sets of determinations. Here is the method:
as §1, §2

Data set [4] relates to Acinetobacter baumannii MB9953. To be noted: Mueller-Hinton medium, 37°C, 24 h, inoculum 5 × 10^5 CFU/mL; MIC based on three sets of determinations. As for the experimental part:
as §1, §2

The subject of data set [5] is Acinetobacter baumannii MB9952. Conditions: Mueller-Hinton medium, 37°C, 24 h, inoculum 5 × 10^5 CFU/mL; MIC based on three sets of determinations. As for the experimental part: as §1, §2
In data set [6] the test system is Acinetobacter baumannii MB9941. Conditions: Mueller-Hinton medium, 37°C, 24 h, inoculum 5 × 10^5 CFU/mL; MIC based on three sets of determinations. Here is the method: as §1, §2
Data set [7] deals with Acinetobacter baumannii MB9963. To be noted: Mueller-Hinton medium, 37°C, 24 h, inoculum 5 × 10^5 CFU/mL; MIC based on three sets of determinations. As for the experimental part: as §1, §2
Data set [8] deals with Acinetobacter baumannii MB9951. To be noted: Mueller-Hinton medium, 37°C, 24 h, inoculum 5 × 10^5 CFU/mL; MIC based on three sets of determinations. Here is the method:
as §1, §2

The subject of data set [9] is human red blood cells. The experiment in a line: Hemolytic activity (HC50) determination. To be noted: 1% human erythrocytes in PBS pH 7.4, 37°C, 18 h, 12 concentrations up to 1000 μg/mL, hemoglobin release at 570 nm, average of 3 replicates; estimated by extrapolation when 50% hemolysis not observed at 1000 μg/mL.
Method: as §3, §4

Converted amounts (≈) assume the structure as drawn. Square brackets hold non-standard residues; d marks the D form. Peptide text beside a SMILES is read from it. Dab = NCC[C@H](N)C(=O)O; Dap = NC[C@H](N)C(=O)O

With `CC(=O)N[C@H](CCCCN)C(=O)N[C@H](CC(C)C)C(=O)N[C@@H](CN)C(=O)N[C@H](CO)C(=O)N[C@H](CC(C)C)C(=O)N[C@H](CC(C)C)C(=O)N[C@@H](CN)C(=O)N[C@@H](C(=O)N[C@H](CC(C)C)C(=O)N[C@H](CO)C(=O)N[C@@H](CN)C(=O)N[C@H](C)C(=O)N[C@H](CCCCN)C(=O)N[C@H](C)C(=O)N[C@H](C)C(=O)N[C@H](CCCCN)C(=O)N[C@H](CC(C)C)C(=O)N[C@@H](CN)C(=O)N[C@@H](C(=O)N[C@H](CC(C)C)C(=O)N[C@H](CC(C)C)C(=O)N[C@@H](CN)C(=O)N[C@H](C)C(=O)N[C@H](CC(C)C)C(=O)N[C@H](CO)C(=O)N[C@@H](CN)C(N)=O)[C@H](C)O)[C@H](C)O` [D105(Lys^1-6 Dap-1)] (Ac-[dK][dL][Dap][dS][dL][dL][Dap][dT][dL][dS][Dap][dA][dK][dA][dA][dK][dL][Dap][dT][dL][dL][Dap][dA][dL][dS][Dap]-NH2), in the data set with human red blood cells [1], the “lysis of human red blood cells at 1000 μg/mL” value was “essentially no lysis”. The “MIC MB9955” value in [2] is 0.5 µM (≈ 1.31 µg/mL).
Consider `CC(=O)N[C@H](CCCCN)C(=O)N[C@H](CC(C)C)C(=O)N[C@H](CCCCN)C(=O)N[C@H](CO)C(=O)N[C@H](CC(C)C)C(=O)N[C@H](CC(C)C)C(=O)N[C@H](CCCCN)C(=O)N[C@@H](C(=O)N[C@H](CC(C)C)C(=O)N[C@H](CO)C(=O)N[C@H](C)C(=O)N[C@H](C)C(=O)N[C@H](CCCCN)C(=O)N[C@H](CCCCN)C(=O)N[C@H](CCCCN)C(=O)N[C@H](CCCCN)C(=O)N[C@H](CC(C)C)C(=O)N[C@H](C)C(=O)N[C@@H](C(=O)N[C@H](CC(C)C)C(=O)N[C@H](CC(C)C)C(=O)N[C@H](CCCCN)C(=O)N[C@H](C)C(=O)N[C@H](CC(C)C)C(=O)N[C@H](CO)C(=O)N[C@H](CO)C(N)=O)[C@H](C)O)[C@H](C)O` [D103(Lys^1Ser^26-5 Lys-2)] (Ac-[dK][dL][dK][dS][dL][dL][dK][dT][dL][dS][dA][dA][dK][dK][dK][dK][dL][dA][dT][dL][dL][dK][dA][dL][dS][dS]-NH2), for which the “MIC MB9955” value in [2] amounted to 0.7 µM (≈ 1.98 µg/mL). The “MIC MB9949” value in data set [3] is 0.7 µM (≈ 1.98 µg/mL). Besides, the “MIC MB9953” value in data set [4] came to 0.7 µM (≈ 1.98 µg/mL). Further, in [5], the “MIC MB9952” value was 0.7 µM (≈ 1.98 µg/mL). The “MIC MB9941” value in [6] was found to be 0.7 µM (≈ 1.98 µg/mL). The “MIC MB9963” value in [7] amounted to 0.7 µM (≈ 1.98 µg/mL). In addition, the “MIC MB9951” value in [8] turned out to be 0.7 µM (≈ 1.98 µg/mL). In addition, the “HC50 (concentration of peptide that results in 50% hemolysis)” value in the data set on human red blood cells [9] is 134.9 µM.
Take `CC(=O)N[C@H](CCCCN)C(=O)N[C@H](CC(C)C)C(=O)N[C@@H](CCN)C(=O)N[C@H](CO)C(=O)N[C@H](CC(C)C)C(=O)N[C@H](CC(C)C)C(=O)N[C@@H](CCN)C(=O)N[C@@H](C(=O)N[C@H](CC(C)C)C(=O)N[C@H](CO)C(=O)N[C@@H](CCN)C(=O)N[C@H](C)C(=O)N[C@H](CCCCN)C(=O)N[C@H](C)C(=O)N[C@H](C)C(=O)N[C@H](CCCCN)C(=O)N[C@H](CC(C)C)C(=O)N[C@@H](CCN)C(=O)N[C@@H](C(=O)N[C@H](CC(C)C)C(=O)N[C@H](CC(C)C)C(=O)N[C@@H](CCN)C(=O)N[C@H](C)C(=O)N[C@H](CC(C)C)C(=O)N[C@H](CO)C(=O)N[C@H](CO)C(N)=O)[C@H](C)O)[C@H](C)O` [D102(Lys^1Ser^26-5 Dab-1)] (Ac-[dK][dL][Dab][dS][dL][dL][Dab][dT][dL][dS][Dab][dA][dK][dA][dA][dK][dL][Dab][dT][dL][dL][Dab][dA][dL][dS][dS]-NH2): the “MIC MB9955” value in [2] worked out at 0.7 µM (≈ 1.88 µg/mL). The “MIC MB9949” value in data set [3] came to 0.7 µM (≈ 1.88 µg/mL). The “MIC MB9953” value in data set [4] stood at 1.4 µM (≈ 3.76 µg/mL). Besides, the “MIC MB9952” value in data set [5] is 0.7 µM (≈ 1.88 µg/mL). In data set [6], the “MIC MB9941” value worked out at 0.4 µM (≈ 1.07 µg/mL). The “MIC MB9963” value in [7] turned out to be 0.7 µM (≈ 1.88 µg/mL). Besides, the “MIC MB9951” value in data set [8] amounted to 0.7 µM (≈ 1.88 µg/mL). The “HC50 (concentration of peptide that results in 50% hemolysis)” value in the data set on human red blood cells [9] was greater than 708 µM.
